Patent publication US20230002327A1, “SMALL-MOLECULE REGULATOR OF TLR8” (TSINGHUA UNIVERSITY, priority 2019, published 2023)

Legend:
[1] = tested on: R848-induced signaling pathway in THP-1 cells; assay: ELISA of inflammatory factors in R848-treated THP-1 cells; format: cell-based, human
Description: THP-1 cells treated with 50 ng/mL of PMA were suspended in RPMI medium (containing 10% fetal bovine serum, penicillin (100 U/mL), streptomycin ([…]) and 0.05 mM 2-mercaptoethanol), seeded in a 12-well plate at a density of 1×10^6 cells/well and 1 mL/well, and incubated in a cell incubator (37° C., 5% CO2).
(§1) After 48 hours, suspending cells would adhere onto the surface of the 12-well plate, non-adhered cells and the medium were aspirated, and cells were washed with sterile […] buffer (3×1 mL). RPMI medium was added (1 mL/well), and R848 (1 μg/mL) and various concentrations of Compound 24 or Compound 10 (as a negative control) were further added to treat cells. Or, the same amount of peripheral blood mononuclear cells derived from healthy human were used instead of THP-1 cells for subsequent experiments.
(§2) After 24 hours, the supernatant of the medium was collected and stored in a freezer at −80° C. Cells were washed with PBS (3×1 mL), the 12-well plate was placed on ice, and then 400 μL of lysis buffer (containing protease inhibitor) was added to each well, during which the cells were pipetted every five minutes. After 20 minutes, the mixture was transferred to the corresponding 1.5-mL tube and centrifuged at 13.2K rpm and 4° C. for 20 minutes. 350 μL of the supernatant was collected into a new centrifuge tube and frozen at −80° C.
(§3) Cytokines interleukin-1β(IL-1β), interleukin-6 (IL-6) and tumor necrosis factor (TNF-α) were quantified by enzyme-linked immunosorbent assay (ELISA) according to the instructions of the kit provided by the manufacturer.

[2] = tested on: R848-induced signaling pathway in human peripheral blood mononuclear cells; assay: ELISA of TNF-α in R848-treated human peripheral blood mononuclear cells; format: cell-based; conditions: human peripheral blood mononuclear cells (FIG. 8)
Description: as §1, §2, §3

[3] = tested on: TLR1/2, TLR2/6, TLR3, TLR4 and TLR5 signaling pathways; assay: ELISA of TNF-α in TLR1/2, TLR2/6, TLR3, TLR4 or TLR5 signaling pathways in human PBMC; format: cell-based; conditions: human peripheral blood mononuclear cells (FIG. 4)
TLR7 = target: T1, TLR7 (Homo sapiens, UniProt Q9NYK1); assay: Inhibition of R848-induced signaling in HEK-Blue hTLR7 cell line (Quanti-Blue); format: cell-based
T1 construct: host or cells: HEK-Blue hTLR7 (HEK293-derived SEAP reporter cells)
T1 sequence (Q9NYK1 27-1049): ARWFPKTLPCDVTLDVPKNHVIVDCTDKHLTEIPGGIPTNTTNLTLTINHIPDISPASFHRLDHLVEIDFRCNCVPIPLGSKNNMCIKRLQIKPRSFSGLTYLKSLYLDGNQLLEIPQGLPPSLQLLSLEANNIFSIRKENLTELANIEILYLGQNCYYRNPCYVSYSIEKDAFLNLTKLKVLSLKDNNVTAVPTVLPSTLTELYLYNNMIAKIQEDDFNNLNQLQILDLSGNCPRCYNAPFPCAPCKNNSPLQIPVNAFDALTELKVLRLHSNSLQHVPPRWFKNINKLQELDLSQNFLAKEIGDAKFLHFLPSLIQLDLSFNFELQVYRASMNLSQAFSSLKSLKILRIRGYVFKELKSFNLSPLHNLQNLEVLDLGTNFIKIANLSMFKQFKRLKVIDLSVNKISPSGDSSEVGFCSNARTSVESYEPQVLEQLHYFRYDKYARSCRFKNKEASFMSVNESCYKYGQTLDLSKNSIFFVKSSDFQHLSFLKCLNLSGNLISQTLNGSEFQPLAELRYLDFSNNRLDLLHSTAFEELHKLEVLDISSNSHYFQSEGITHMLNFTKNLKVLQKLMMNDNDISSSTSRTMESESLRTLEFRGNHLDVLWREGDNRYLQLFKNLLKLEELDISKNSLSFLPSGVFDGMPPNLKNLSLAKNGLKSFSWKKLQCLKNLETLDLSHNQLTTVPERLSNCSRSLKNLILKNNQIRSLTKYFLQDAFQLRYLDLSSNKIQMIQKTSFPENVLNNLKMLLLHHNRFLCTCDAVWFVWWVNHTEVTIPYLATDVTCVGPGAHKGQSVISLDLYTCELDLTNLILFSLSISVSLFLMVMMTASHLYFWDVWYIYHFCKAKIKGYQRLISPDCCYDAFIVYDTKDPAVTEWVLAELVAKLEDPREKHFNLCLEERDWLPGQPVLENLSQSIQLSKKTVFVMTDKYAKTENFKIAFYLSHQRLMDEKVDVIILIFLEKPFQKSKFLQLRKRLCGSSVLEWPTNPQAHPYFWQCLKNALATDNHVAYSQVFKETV
Outline: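 HEK-Blue hTLR8 or hTLR7 cells in serum-free DMEM were co-treated for 24 h at 37 °C with compound plus 1 μg/mL R848, or 5 μg/mL ssRNA40/LyoVec or ORN06/LyoVec. SEAP in the supernatant was read with Quanti-Blue at OD620. % inhibition was taken relative to ligand-only and untreated cells, and IC50 was fitted.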

CSc1nnc(CCCO)n1-c1cc(C)c(C)c(C)c1 [Compound 24, 3-(5-(methylthio)-4-(3,4,5-trimethylphenyl)-4H-1,2,4-triazole-3-yl)propan-1-ol]
inhibitory effect on inflammatory factor TNF-α ([1]; concentration-dependent (FIG. 5)): significant inhibitory effect
inhibitory effect on inflammatory factor IL-6 ([1]; concentration-dependent (FIG. 6)): significant inhibitory effect
inhibitory effect on inflammatory factor IL-1β ([1]; concentration-dependent (FIG. 7)): significant inhibitory effect
inhibitory effect on inflammatory factor TNF-α [2]: significant inhibitory effect
inhibitory effect on TNF-α in TLR1/2, TLR2/6, TLR3, TLR4 and TLR5 signaling pathways [3]: no inhibitory effect

CCOCc1nc(I)c(-c2ccccc2)n1CC(C)(C)O [Compound 53, 1-[2-(ethoxymethyl)-4-iodo-5-phenyl-1H-imidazole-1-yl]-2-methylpropan-2-ol]
TLR7 (normalized inhibitory effect on R848-induced signaling) (TLR7): 1.0 ± 0.2
